Values of other authors as cited in patent publication EP1860434A1, “Method for analysing substance mixtures” (Shimadzu Europa GmbH, priority 2006, dated 2007).

conditions: listed for the six substances of the Performance Test Probe; no measurement described

Compound	pKa-Wert
2-Ethyliden-1.5-dimethyl-3.3-diphenyl-pyrrolidin	9.6
CC(N)Cc1ccc2c(c1)OCO2 (stereo not drawn) [Methylendioxyamphetamin (MDA), Methylendioxyamphetamin]	9.7
CN(C)C(=O)Oc1cccc([N+](C)(C)C)c1 [Neostigminbromid]	12
